Data reported in ChEMBL document CHEMBL1138443, “Carbonic anhydrase inhibitors. Cloning, characterization, and inhibition studies of a new beta-carbonic anhydrase from Mycobacterium tuberculosis” (J Med Chem, 2009).

Molecular target: T1, Beta-carbonic anhydrase 1 (Mycobacterium tuberculosis, UniProt P9WPJ7)
T1 sequence (P9WPJ7 whole entry): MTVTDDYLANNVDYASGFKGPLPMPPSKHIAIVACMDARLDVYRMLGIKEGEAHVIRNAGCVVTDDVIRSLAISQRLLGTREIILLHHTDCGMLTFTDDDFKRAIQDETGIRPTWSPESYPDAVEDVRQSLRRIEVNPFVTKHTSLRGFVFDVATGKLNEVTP

SMILES: CC(=O)/N=c1/sc(S(N)(=O)=O)nn1C [METHAZOLAMIDE]
- Ki: 781 nM
